The values that follow come from PubChem BioAssay (NCI).

Some test systems named below: 786-0 renal; HCC-2998 colon; HOP-62 NSCLC; KM12 colon; LOX IMVI melanoma; OVCAR-8 ovarian; SK-MEL-2 melanoma; SNB-75 CNS; UO-31 renal; EKVX NSCLC.
What all share (experiment): inhibition of tumour cell growth, NCI panel, 48 h

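Test compounds were applied to cells in 96-well plates for 48 hours at 5 doses. GI50 is the concentration that inhibits growth by half. TGI: total growth inhibition.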 Some results are limits rather than exact numbers.

Regarding `O=c1c2ccccc2nc(-c2ccccc2Cl)n1-c1nnc(C(F)(F)F)s1`, the GI50 in the assay with 786-0 renal was 3.18 µM; in the assay with HCC-2998 colon it was 4.24 µM; with HOP-62 NSCLC, 6.09 µM; with KM12 colon, 3.68 µM; in the assay on LOX IMVI melanoma, 3.37 µM; in the assay on OVCAR-8 ovarian, 3.37 µM. For the same compound, the GI50 in the assay with SK-MEL-2 melanoma is 2.72 µM; with SNB-75 CNS it was 3.47 µM; in the assay on UO-31 renal it was 2.75 µM. Further, the TGI is 11.4 µM with 786-0 renal; 19.6 µM with HCC-2998 colon; 29.7 µM in the assay with HOP-62 NSCLC; 14.1 µM in the assay on KM12 colon; 14.2 µM in the assay with LOX IMVI melanoma; greater than 100 µM with OVCAR-8 ovarian. Further, the TGI is 6.27 µM with SK-MEL-2 melanoma, greater than 100 µM in the assay on SNB-75 CNS and 11.6 µM in the assay on UO-31 renal.

As to `COc1cccc(C2=C(c3cn(C)c4cc(F)ccc34)C(=O)NC2=O)c1`, the GI50 was greater than 18.7 µM in the assay with 786-0 renal; greater than 25 µM with HCC-2998 colon; greater than 25 µM in the assay on HOP-62 NSCLC; greater than 17.4 µM with KM12 colon; 17.1 µM with LOX IMVI melanoma; greater than 18.2 µM with OVCAR-8 ovarian. In addition, the GI50 in the assay on SK-MEL-2 melanoma was greater than 19.4 µM; with SNB-75 CNS, 2.42 µM; in the assay with UO-31 renal, 9.19 µM. The TGI with 786-0 renal, with HCC-2998 colon, with HOP-62 NSCLC, in the assay with KM12 colon, in the assay with LOX IMVI melanoma and in the assay with OVCAR-8 ovarian was greater than 25 µM throughout. Also, the TGI in the assay on SK-MEL-2 melanoma, with SNB-75 CNS and in the assay on UO-31 renal was greater than 25 µM each time.

Turning to `O=C(CCl)Nc1cc(Cl)c(Cl)cc1Cl`, the TGI was 2.87 µM in the assay with 786-0 renal; 4.67 µM in the assay with EKVX NSCLC; greater than 10 µM in the assay on HCC-2998 colon; 3.89 µM with HOP-62 NSCLC; 0.83 µM with KM12 colon; 3.03 µM with LOX IMVI melanoma. Further, the TGI in the assay with OVCAR-8 ovarian is 3.1 µM; with SK-MEL-2 melanoma, 3.44 µM.

As for `O=C(Nc1cccc(-n2cc(-c3ccncc3)c(-c3ccc(O)c(Cl)c3)n2)c1)c1cc(C(F)(F)F)cc(C(F)(F)F)c1`, the GI50 in the assay on 786-0 renal is 3.93 µM; in the assay on HCC-2998 colon it was 3.06 µM; in the assay on HOP-62 NSCLC, 17.5 µM; in the assay with KM12 colon, 2.05 µM; with LOX IMVI melanoma it was 1.86 µM; with OVCAR-8 ovarian, 4.88 µM. Also, the results for the GI50 with SK-MEL-2 melanoma, in the assay with SNB-75 CNS and with UO-31 renal were 9.33 µM, 2.35 µM and 4.15 µM, respectively. Also, the TGI with 786-0 renal was 18.3 µM; in the assay with HCC-2998 colon, greater than 50 µM; in the assay on HOP-62 NSCLC, greater than 50 µM; in the assay on KM12 colon, 12.5 µM; with LOX IMVI melanoma it was greater than 50 µM; with OVCAR-8 ovarian, greater than 50 µM. Further, the TGI in the assay on SK-MEL-2 melanoma was 34 µM; in the assay with SNB-75 CNS it was greater than 50 µM; in the assay with UO-31 renal, greater than 50 µM.

Take `CCOc1ccc2c(c1)CN(Cc1ccc(Cl)cc1)CO2`: the GI50 in the assay with 786-0 renal was 14.8 µM; in the assay with HCC-2998 colon it was 18.7 µM; with HOP-62 NSCLC it was 26.2 µM; with KM12 colon it was 18.3 µM; in the assay with LOX IMVI melanoma, 17.2 µM; with OVCAR-8 ovarian, 18 µM. Moreover, the GI50 is 18 µM in the assay with SK-MEL-2 melanoma, 15 µM in the assay with SNB-75 CNS and 8.82 µM in the assay with UO-31 renal. Moreover, the TGI with 786-0 renal is 30.1 µM; in the assay on HCC-2998 colon, 35 µM; with HOP-62 NSCLC it was greater than 100 µM; in the assay with KM12 colon it was 35.5 µM; in the assay with LOX IMVI melanoma it was 33.4 µM; in the assay with OVCAR-8 ovarian, 38.3 µM. The TGI in the assay on SK-MEL-2 melanoma was 34 µM; with SNB-75 CNS, 45.8 µM; in the assay on UO-31 renal, 43.8 µM.

For `CC(c1ccccc1)[C@@H](C(=O)Nc1ccc(I)cc1F)N1C(=O)N[C@H](c2ccc(OC[C@H](O)CO)cc2)C1=O` (stereo partly drawn), the GI50 in the assay with 786-0 renal was greater than 14.4 µM; with HCC-2998 colon it was 0.445 µM; in the assay on HOP-62 NSCLC it was 17 µM; in the assay with KM12 colon, 2.4 µM; in the assay with LOX IMVI melanoma, 2.5 µM; in the assay with OVCAR-8 ovarian, greater than 15.9 µM. Moreover, the GI50 was 0.158 µM with SK-MEL-2 melanoma, greater than 11.1 µM with SNB-75 CNS and 9.91 µM with UO-31 renal. Also, the TGI in the assay on 786-0 renal, in the assay on HCC-2998 colon, in the assay on HOP-62 NSCLC, with KM12 colon, in the assay on LOX IMVI melanoma and in the assay with OVCAR-8 ovarian was greater than 25 µM in each case. Besides, the TGI in the assay on SK-MEL-2 melanoma was 1.51 µM; in the assay with SNB-75 CNS it was greater than 25 µM; with UO-31 renal, greater than 25 µM.

In the case of `CC[C@]1(O)CC2CN(CCc3c([nH]c4ccccc34)[C@@](C(=O)OC)(c3cc4c(cc3OC)N(C=O)[C@H]3[C@@](O)(C(=O)OC)[C@H](OC(C)=O)[C@]5(CC)C=CCN6CC[C@]43[C@@H]65)C2)C1` (stereo partly drawn), the GI50 was 0.014 µM in the assay on 786-0 renal; greater than 30.8 µM with EKVX NSCLC; less than 0.005 µM in the assay with HCC-2998 colon; 0.0054 µM with HOP-62 NSCLC; less than 0.005 µM with KM12 colon; 0.00808 µM in the assay with LOX IMVI melanoma. Moreover, the values for the GI50 in the assay on OVCAR-8 ovarian, in the assay with SK-MEL-2 melanoma and in the assay on UO-31 renal were 0.00828 µM, less than 0.005 µM and 0.519 µM, respectively. Besides, the TGI is greater than 22.5 µM in the assay with 786-0 renal; greater than 50 µM in the assay on EKVX NSCLC; greater than 44.2 µM in the assay with HOP-62 NSCLC; greater than 50 µM in the assay on KM12 colon; greater than 50 µM in the assay on LOX IMVI melanoma; greater than 50 µM in the assay with OVCAR-8 ovarian. Also, the TGI in the assay with SK-MEL-2 melanoma was 4.16 µM; in the assay on UO-31 renal, greater than 50 µM.

In the case of `COc1cc(-c2ccc(NC(=O)SCCC(=O)O)cc2OC)ccc1NC(=O)SCCC(=O)O`, the TGI in the assay with 786-0 renal, in the assay with EKVX NSCLC, in the assay on HOP-62 NSCLC, in the assay on KM12 colon, in the assay with LOX IMVI melanoma and with OVCAR-8 ovarian was greater than 100 µM throughout. The TGI in the assay with SK-MEL-2 melanoma, in the assay on SNB-75 CNS and with UO-31 renal was greater than 100 µM in each case.

`COC1OC(CBr)C(OC(=O)c2ccccc2)C(OS(=O)(=O)c2ccc(C)cc2)C1Br` (stereo not drawn): the TGI in the assay with 786-0 renal, in the assay with EKVX NSCLC, with HCC-2998 colon, in the assay on HOP-62 NSCLC, in the assay with KM12 colon and in the assay with LOX IMVI melanoma was greater than 100 µM each time. The TGI with OVCAR-8 ovarian, with SK-MEL-2 melanoma and in the assay on UO-31 renal was greater than 100 µM each time.
